The results in this text go back to US20200289434A1, “RAPIDLY IMPROVING ENDOTHELIAL FUNCTION, REDUCING ARTERIAL STIFFNESS AND REVERSING CALCIFICATION OF BLOOD VESSELS BY ADMINISTERING VITAMIN K” (KAYDENCE PHARMA AS, priority 2019, published 2020).

Assay [1] deals with ApoE/LDLR−/− mice. Nature of the assay: Example 3 second part: MRI assessment of Ach-induced response in BCA and LCA, older mice. Particulars: eight weeks, 24-week-old mice. Type of assay: in vivo. As for the experimental part: Magnetic resonance imaging (MRI) experiments were performed using a 9.4T scanner (BioSpec 94/20 USR, Bruker, Germany) located in the Department of Magnetic Resonance Imaging, Institute of Nuclear Physics, Polish Academy of Sciences in Krakow. During the experiment, mice were anaesthetized using isoflurane (Aerrane, Baxter Sp. z o. o., Poland, 1.7 vol %) in an oxygen and air (1:2) mixture and imaged in the supine position. Activity of the heart, respiration, and body temperature (maintained at 37° C. using circulating warm water) were monitored using a Monitoring and Gating System (SA Inc., Stony Brook, N.Y., USA).
Endothelial function was assessed based on vascular responses to acetylcholine (Ach) administration in brachiocephalic artery (BCA), left common carotid artery (LCA) (FIGS. 6 A and B) and abdominal aorta (AA) (FIG. 6C) as well as to responses to increase in flow (flow-mediated dilatation, FMD) in femoral artery (FA) (FIG. 6D) as described in Bar A, Skorka T, Jasinski K, Sternak M, Bartel Z, Tyrankiewicz U, et al. Retrospectively-gated MRI for in vivo assessment of endothelium-dependent vasodilatation and endothelial permeability in murine models of endothelial dysfunction. NMR Biomed 2016; 29(8):1088.; Sternak M, Bar A, Adamski M G, Mohaissen T, Marczyk B, Kieronska A, et al. The Deletion of Endothelial Sodium Channel α (αENaC) Impairs Endothelium-Dependent Vasodilation and Endothelial Barrier Integrity in Endotoxemia in Vivo. […]
Vasomotor response was examined by comparing two time-resolved 3D images of the vessels prior to and 25 minutes after intraperitoneal Ach administration (Sigma-Aldrich, Poznan Poland: 50 μl, 16.6 mg/kg), as well as prior to and 5 minutes after vessel occlusion. […] End-diastolic volumes of vessels were analyzed using ImageJ software 1.46r (NIH Bethesda, Md., USA) and scripts written in Matlab (MathWorks, Natick, Mass., USA). […]

Assay [2] relates to ApoE/LDLR−/− mice. The assay can be described thus: Example 3 second part: histological assessment of area and composition of atherosclerotic plaque in BCA. The format is in vivo. Conditions: eight weeks. The source says:
For the determination of atherosclerotic plaque area and composition isolated brachiocephalic artery (BCA) was dissected, fixed in 4% buffered formalin, and embedded in paraffin. 5 μm-thick serial sections of BCA were collected from the proximal to distal part of the artery. Staining with Unna's orcein combined with Martius, Scarlet and Blue trichrome (OMSB) was applied on every tenth section (50 μm interval between each section) for quantitative analysis of atherosclerotic plaques. The areas of particular components of atherosclerotic plaque as well as artery lumen and wall were determined after Columbus-based software processing (FIG. 9) using specially-designed algorithm as described in Gajda M, Jasztal A, Banasik T, Jasek-Gajda E, Chlopicki S. Combined orcein and martius scarlet blue (OMSB) staining for qualitative and quantitative analyses of atherosclerotic plaques in brachiocephalic arteries in apoE/LDLR−/− mice. Histochem Cell Biol 2017. doi:10.1007/s00418-017-1538-8. The parameters analyzed include vessel wall area (VWA), internal vessel area (IVA=plaque area+lumen area), plaque area (expressed as percent of internal wall area: plaque/IWA), and lumen area (expressed as percent of internal wall area: lumen/IWA).

Values joined by “and” are separate entries in the source; they are usually repeats but may differ in a detail not shown here. Identical values can stand only once.

In the case of `CC(C)=CCC/C(C)=C/CC/C(C)=C/CC/C(C)=C/CC/C(C)=C/CC/C(C)=C/CC/C(C)=C/CC1=C(C)C(=O)c2ccccc2C1=O` [MK-7, menaquinone-7], in the assay on ApoE/LDLR−/− mice [1] (high dose 10 mg/kg b.w/day), the “change in volume of BCA after Ach injection” value is on record as 3.12%. Further, the “change in volume of LCA after Ach injection” value in the assay on ApoE/LDLR−/− mice [1] (high dose 10 mg/kg b.w/day) is 4.45%; in the assay with ApoE/LDLR−/− mice [1] (low dose 0.03 mg/kg b.w/day, listed as vitamin K2, 0.03 mg/kg/day) it was ~−3% and −3.92%. In the assay on ApoE/LDLR−/− mice [2] (either low or high dose), the “plaque and lumen area expressed as percent of IWA” value is recorded as “did not change”. For the same compound, the “plaque size vs non-treated mice” value in the assay on ApoE/LDLR−/− mice [2] (low (0.03) or high (10 mg/kg b.w./day) dose) was “not different”. Also, the “decrease in vessel wall area (VWA)” value in the assay on ApoE/LDLR−/− mice [2] (low and high dose, 24-week-old mice) is “about 5%”. Besides, the “internal wall area (IWA)” value with ApoE/LDLR−/− mice [2] (lower dose, not visible for entire vessel) is “decreased only in the middle part of the vessel”.
